Legend:
[1] = tested on: MLL; assay: High-throughput FP Sinefungin Probe 1A binding assay adapted for MLL; settings: MLL 1 μM, FIG. 10
Experimental: Adaptation for GLP and MLL: Assays for probe binding to two other methyltransferases (GLP and MLL) were also adapted to high throughput format. The assay conditions were identical to the SET7/9 assay, however the protein concentration was increased to raise the signal:noise ratio for the assay. For GLP, the protein concentration was raised to 500 nM, while the concentration of MLL was raised to 1 μM. Data were analyzed in GraphPad Prism (v. 5.04) and/or GeneData (v. 9.01).
This assay was also adapted for high throughput format against the methyltransferase MLL (Cayman Catalog Item #10658). Relevant data are illustrated in FIG. 10: The fluorescence polarization (FP) Sinefungin Probe 1A binding assay was adapted to a high-throughput inhibitor screening format for both A) MLL and B) SET7/9. The probe polarization is increased by >120 mp by binding to SET7/9 (30 nM) and by >145 mp by binding to MLL (1 μM). […] Sixty-four replicates were tested for each condition for SET7/9, sixteen replicates were tested for MLL. Z′ factor scores were >0.5 for all conditions tested (SET7/9:sinefungin: 0.71; SAM: 0.72; no SET7/9: 0.69; MLL:sinefungin: 0.72).

[2] = target: T1, GLP (Homo sapiens, UniProt Q9H9B1); assay: Fluorescence polarization saturation binding of fluorescent probe to GLP; settings: saturation-binding format, mean ± SEM, read-out: Sinefungin Probe 1A Affinity
T1 sequence (Q9H9B1 1-1298): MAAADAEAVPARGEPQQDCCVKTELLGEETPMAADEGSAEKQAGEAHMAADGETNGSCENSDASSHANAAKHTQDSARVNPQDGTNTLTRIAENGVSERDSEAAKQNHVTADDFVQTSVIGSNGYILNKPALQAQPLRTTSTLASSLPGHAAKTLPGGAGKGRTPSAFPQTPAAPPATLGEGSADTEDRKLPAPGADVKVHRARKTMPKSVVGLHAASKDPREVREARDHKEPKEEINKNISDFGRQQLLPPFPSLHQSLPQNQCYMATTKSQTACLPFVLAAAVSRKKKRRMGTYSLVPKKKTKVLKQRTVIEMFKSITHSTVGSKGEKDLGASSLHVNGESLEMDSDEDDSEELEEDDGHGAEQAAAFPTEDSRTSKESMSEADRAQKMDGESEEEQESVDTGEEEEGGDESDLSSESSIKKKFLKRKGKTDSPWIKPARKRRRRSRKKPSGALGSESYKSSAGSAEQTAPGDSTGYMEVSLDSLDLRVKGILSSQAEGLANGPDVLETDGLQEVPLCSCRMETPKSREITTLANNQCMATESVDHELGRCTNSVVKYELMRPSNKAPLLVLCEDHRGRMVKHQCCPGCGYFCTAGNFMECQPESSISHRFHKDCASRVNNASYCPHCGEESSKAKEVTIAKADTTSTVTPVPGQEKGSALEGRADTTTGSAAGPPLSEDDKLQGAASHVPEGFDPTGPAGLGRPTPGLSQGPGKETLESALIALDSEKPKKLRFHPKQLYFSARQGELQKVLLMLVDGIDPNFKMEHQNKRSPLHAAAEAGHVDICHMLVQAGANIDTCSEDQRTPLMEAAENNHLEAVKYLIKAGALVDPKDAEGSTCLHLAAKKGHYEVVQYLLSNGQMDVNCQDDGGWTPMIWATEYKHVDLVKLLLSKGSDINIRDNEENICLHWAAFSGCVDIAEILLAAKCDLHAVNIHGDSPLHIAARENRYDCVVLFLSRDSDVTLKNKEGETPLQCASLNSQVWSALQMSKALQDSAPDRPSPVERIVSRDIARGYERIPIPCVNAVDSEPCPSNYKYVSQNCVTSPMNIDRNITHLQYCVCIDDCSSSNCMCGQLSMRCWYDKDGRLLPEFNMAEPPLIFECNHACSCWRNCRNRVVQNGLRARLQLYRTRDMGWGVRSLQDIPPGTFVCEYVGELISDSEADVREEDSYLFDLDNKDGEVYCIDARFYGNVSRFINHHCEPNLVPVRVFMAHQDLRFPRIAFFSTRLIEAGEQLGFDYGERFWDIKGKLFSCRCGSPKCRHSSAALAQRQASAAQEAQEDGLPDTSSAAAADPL
Experimental: Sinefungin Probe 1A was tested for the ability to bind to 16 proteins, including several non-methlytransferase protein controls (Table 2). This probe binds to 4 methyltransferases (SET7/9, G9a, GLP, MLL) with Kd values <2 μM.

- increase of probe polarization by binding [1]: > 145 mp
- Kd [2]: 580 ± 50 nM
SMILES: Nc1ncnc2c1ncn2[C@@H]1O[C@H](C[C@@H](N)CC[C@H](N)C(=O)O)[C@@H](OCc2cnnn2CCCCCCNC(=O)OC2CCN(C(=O)c3ccccc3C3=c4cc5c6c(c4Oc4c3cc3c7c4CCCN7CCC3)CCC[N+]=6CCC5)CC2)[C@H]1O [Sinefungin Probe 1A]

— US9120820B2, “Fluorescent molecular probes for use in assays that measure test compound competitive binding with SAM-utilizing proteins” (CAYMAN CHEMICAL COMPANY, INCORPORATED, priority 2011, dated 2015)
